Source: patent US12084437B2, “Halo-substituted piperidines as orexin receptor modulators” (AstraZeneca AB, priority 2016, dated 2024)

What was measured:
OX2 = biological target: T1, OX2 (Homo sapiens, UniProt O43614); test: Orexin receptor cell-based functional assay, [Ca2+]i by FLIPR, CHO-OX2 cells; conditions: FLIPR calcium, antagonism of EC90 of [OX]
T1 construct: expressed in transfected cells; host or cells: CHO (CHO-OX2)
T1 sequence (O43614 1-444): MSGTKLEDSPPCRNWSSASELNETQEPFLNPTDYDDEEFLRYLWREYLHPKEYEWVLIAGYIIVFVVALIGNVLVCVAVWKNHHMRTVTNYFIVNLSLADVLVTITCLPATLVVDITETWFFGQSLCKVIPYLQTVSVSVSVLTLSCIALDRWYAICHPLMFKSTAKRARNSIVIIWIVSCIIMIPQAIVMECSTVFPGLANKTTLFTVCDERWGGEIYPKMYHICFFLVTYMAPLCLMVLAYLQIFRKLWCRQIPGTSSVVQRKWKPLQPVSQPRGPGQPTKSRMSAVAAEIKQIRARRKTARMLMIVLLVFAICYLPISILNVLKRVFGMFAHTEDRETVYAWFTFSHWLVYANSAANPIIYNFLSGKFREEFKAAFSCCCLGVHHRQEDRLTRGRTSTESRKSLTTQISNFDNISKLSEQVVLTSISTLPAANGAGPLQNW
Summary of the method: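 CHO cells expressing human OX1 or OX2 (20,000/well, grown overnight) were loaded with Calcium6 dye plus 2.5 mM probenecid for 2 h at 37 °C, then preincubated 30 min with compound (0.1 nM–10 µM). FLIPR fluorescence (ex 488/em 540 nm) was tracked before and after an EC90 orexin challenge.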

[1] = Metabolic stability and intrinsic clearance in human liver microsomes; format: in vitro ADME; conditions: pooled human liver microsomes, NADPH, 1 uM compound, 37 C; read-out: hMics CLint
Experimental: Human Liver Microsomes (HLM) were obtained from BD Gentest UltraPool 150 donor (Lot no. 38289) at a concentration of 20 mg/mL protein. HLMs are stored in a −80° C. freezer. Prior to use, the pooled HLM were removed from the freezer and allowed to thaw in a 37° C. water bath and then stored on wet ice. 100 μmol/L test compound solution and positive control (PC) solutions (phenacetin, verapamil, diclofenac, imiprimine, benzydamine and metoprolol) were prepared by adding 2 μL of 10 mmol/L stock solution in DMSO to 198 μL of acetonitrile. HML mixtures were prepared by adding 1325 μL of 20 mg/mL HLM to 22260 μL of phosphate buffer to obtain the HLM mixture at 1.1236 mg/mL. Prior to testing the compounds, 222.5 μL of 1.1236 mg/mL HLM mixtures and 25 μL of the 10 mM NADPH were mixed in the incubation plates on a whirly mixer for 10 seconds. The incubation plates were pre-warmed at 37° C. for 8 min. […]
Quantitative LC-MS analysis were carried out with an API 4000 (AB sciex, USA) Ultra mass spectrometer at MRM mode (MS/MS). Peak areas were determined from extracted ion chromatograms. Percent parent remaining was calculated from peak area of test compound or PC. The slope value, k, was determined by linear regression of the natural logarithm of percent parent remaining vs. incubation time curve. […]
The in vitro half-life (in vitro t1/2) was determined from the slope value: in vitro t½=−(0.693/k). […]

Row | SMILES | IC50 (OX2) [µM] | microsomal CLint at 1 µM [1] [µL/min/mg]
1 | Cc1nc(C(=O)N2CC(F)(F)C[C@@H](C)[C@H]2CNc2ccc(C(F)(F)F)cn2)c(-c2ccc(F)cc2)s1 [Compound 185, ((2S,3R)-5,5-difluoro-3-methyl-2-(((5-(trifluoromethyl)pyridin-2-yl)amino)methyl)piperidin-1-yl)(5-(4-fluorophenyl)-2-methylthiazol-4-yl)methanone] | > 5 | 29
2 | C[C@@H]1CC(F)(F)CN(C(=O)c2nn(C)cc2-c2ccc(Cl)cc2)[C@@H]1CNc1cnc(C(F)(F)F)cn1 [Compound 129, (4-(4-chlorophenyl)-1-methyl-1H-pyrazol-3-yl)((2S,3R)-5,5-difluoro-3-methyl-2-(((5-(trifluoromethyl)pyrazin-2-yl)amino)methyl)piperidin-1-yl)methanone] | 3.5 | < 3
